Test results published in patent publication US20230339835A1, “2,3,5-TRIMETHYL-6-NONYLCYCLOHEXA-2,5-DIENE-1,4-DIONE FOR SUPPRESSING AND TREATING ALPHA-SYNUCLEINOPATHIES, TAUOPATHIES, AND OTHER DISORDERS” (PTC THERAPEUTICS, INC., priority 2018, published 2023).

Experiments:
[1] = Solvent screening for recrystallization (solubility of C9); assay type: physicochemical; conditions: for Hot to RT result: allowed to cool to RT; for RT to Cold result: cooled to 0° C.; for Hot Result: heated to approximately 45-50° C.
Protocol: 100 mg of C9 was placed in test tubes and solvent added and any change noted. Samples were then heated briefly with a heat gun (heating to approximately 45-50° C.), the solubility noted, allowed to cool to RT and solubility noted, then cooled to 0° C. and the solubility noted.

[2] = test system: C57Bl/6 mice, MPTP-induced model of PD; assay: Mouse MPTP model of Parkinson's Disease, open field locomotor assay; assay type: in vivo; conditions: 300 mg/kg PO QD Day -2 to Day 7, MPTP 60 mg/kg, Day 7
Text: Animals. Species: Mouse. Strain: C57Bl/6. Source of Animals: Charles River. Age: 6 to 7 weeks. Sex: Male. Randomization: Animals were assigned randomly to treatment groups. Blinding of Study: Experimenters were blinded to the experimental treatments
Housing and Feeding. Acclimation/Conditioning: Not less than three days. Housing: Mice were housed on a 12 hr light/dark cycle (lights on 6:00 AM) No more than 4 mice per cage. Ventilated cage rack system. Diet: Standard rodent chow and water ad libitum.
Design Parameters. Route(s) of administration: PO. Dose Volume: PO: 5 mL/kg. Formulation(s): formulated by Melior according to directions from BioElectron. Vehicle-sesame oil (Spectrum Chemical, NF Catalog #SE130, CAS #8008-74-0). Dose Levels: 300 mg/kg. Dose Frequency: QD starting Day −2 (MPTP=Day 0) and until Day 7. Study duration: 11 days. Pretreatment time (up to 2 hrs): For Day 0 (MPTP Day): 30 min, Pretreatment time for Open Field Assay/Locomotor Activity (OFA/LMA) assay: 1 hr. Number of Groups: 3. Number of animals per group: 10. Total number of animals: 30 (in the study), 42 animals total (To ensure a proper power analysis of at least 10 animals/group, for all groups receiving MPTP, 4 additional animals were added to mitigate study impacts if there were MPTP-induced fatalities).
MPTP Treatment. MPTP was formulated in phosphate buffered saline and administered to mice three times at a dose of 20 mg/kg (1 mg/mL delivered at 20 mL/kg) at two-hour intervals (final dose of MPTP=60 mg/kg).
Locomotor activity. One day prior (baseline) and on Day 7 after MPTP administration (Day (−1) and Day 7), mice were monitored for various aspects of locomotor function using a fully automated open-field apparatus (Med-Associates, Inc). The apparatus consisted of a 10.75″×10.75″ arena enclosed in a sound-attenuated box, equipped with the fan and house light. […]
Data analysis. Data were averaged and are expressed as the average±SEM.
Data were analyzed by one-way ANOVA followed by a post-hoc tests. p-values of less than 0.05 were considered to be statistically significant from control.

[3] = 70% IPA/H2O, approx conc. 100 mg/mL
[4] = 80% EtOH, approx conc. 50 mg/mL
[5] = 80% EtOH, approx conc. 100 mg/mL
[6] = 95% EtOH, approx conc. 100 mg/mL

## CCCCCCCCCC1=C(C)C(=O)C(C)=C(C)C1=O [Compound C9, 2,3,5-trimethyl-6-nonylcyclohexa-2,5-diene-1,4-dione]
[1]; [3]
  RT result: slightly
  Hot to RT result: slightly soluble
  RT to Cold result: slightly soluble-
  Hot Result: mostly
[1]; [4]
  RT result: partially
  Hot to RT result: partially
  RT to Cold result: slightly
  Hot Result: melted
[1]; [5]
  RT result: partially
  Hot to RT result: partially soluble
  RT to Cold result: slightly soluble
  Hot Result: melted
[1]; [6]
  RT result: partially
  Hot to RT result: partially soluble
  RT to Cold result: mostly insoluble
  Hot Result: soluble
[1]; EtOH, approx conc. 100 mg/mL
  RT result: partially
  Hot to RT result: slightly soluble
  RT to Cold result: partially soluble-
  Hot Result: soluble
[1]; IPA, approx conc. 100 mg/mL
  RT result: soluble
  Hot to RT result: soluble
  RT to Cold result: partially soluble-
  Hot Result: soluble
[1]; MeCN, approx conc. 100 mg/mL
  RT result: soluble
  Hot to RT result: soluble
  RT to Cold result: mostly soluble-
  Hot Result: soluble
[1]; MeOH, approx conc. 100 mg/mL
  RT result: slightly
  Hot to RT result: slightly soluble
  RT to Cold result: insoluble-long needles
  Hot Result: soluble
[1]; THF, approx conc. 100 mg/mL
  RT result: soluble
  Hot to RT result: soluble
  RT to Cold result: soluble
  Hot Result: soluble
[1]; water, approx conc. 10 mg/mL
  RT result: insoluble
  Hot to RT result: insoluble
  RT to Cold result: insoluble
  Hot Result: insoluble
[2]; MPTP+Vehicle vs. MPTP+C9 p<0.001
  open field locomotor assay (vertical time): restored vertical time
[2]; MPTP+Vehicle vs. MPTP+C9 p<0.01
  open field locomotor assay (vertical counts): restored vertical counts
